Active and inactive are the calls of the source. Where a SMILES comes first, the peptide text is derived from it. Bridges are numbered along the chain shown (N, C = ends). [ ]: non-standard residue; d: D form. The star is where a group is joined. bishTyr = N[C@@H](CCCc1ccc(O)cc1)C(=O)O; Tigloyl = C/C=C(\C)C(=O)*; Dhb = C/C=C(\N)C(=O)O
What was measured:
[1] = HeLa 2N DNA content increase, dose response, cell-based, IC50 (AID 1117349); assay type: functional
[2] = Concentration-dependent survival of SW480 colon cancer line, luminescence detection with CellTiter-Glo, half-maximal inhibitory concentration (AID 1117338); assay type: functional
[3] = RKO cell viability reduction, dose response, CellTiter-Glo luminescence (AID 1117322); assay type: functional
[4] = cytotoxicity toward HCT116 cells – cell-based, CellTiter-Glo luminescence, IC50, dose response (AID 1117332); assay type: functional; settings: HCT-116
[5] = SNU-C1 cell viability reduction, dose response, CellTiter-Glo luminescence (AID 1117323); assay type: functional, cell-based
[6] = cytotoxicity toward Colo320 cells – cell-based, CellTiter-Glo luminescence, IC50, dose response (AID 1117334); assay type: functional; settings: COLO 320
[7] = HeLa 4N DNA content increase, dose response, cell-based, IC50 (AID 1117351); assay type: functional
[8] = cytotoxicity toward HT-29 cells – cell-based, CellTiter-Glo luminescence, IC50, dose response (AID 1117330); assay type: functional
[9] = CellTiter-Glo luminescent dose response of DLD-1 viability loss (AID 1117352); assay type: functional
[10] = HCT116 cell viability decrease, GSK3B pretreatment – CellTiter-Glo, IC50, dose response (AID 1117339); assay type: functional; settings: HCT-116
Paired box protein Pax-8 = Paired box protein Pax-8 (Homo sapiens, UniProt Q06710); assay: inhibitors of PAX8-driven TPO luciferase reporter, dose response, RMG-I cells, cherry-pick (AID 687027); assay type: functional, cell-based;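 note: luciferase reporter driven by Pax8 target thyroperoxidase promoter measured by SteadyGlo luminescence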
[11] = NIH:OVCAR-3 ovarian cancer cell cytotoxicity, dose response, PAX8 inhibitor project, plate reader, dry powder samples (AID 743044); assay type: functional, cell-based
[12] = IGROV1 ovarian cancer cell cytotoxicity, dose response, PAX8 inhibitor project, plate reader, dry powder samples (AID 743043); assay type: functional, cell-based; settings: IGROV-1
[13] = non-specific cell cytotoxicity, dose response, cytotoxicity control for PAX8 inhibitor project, plate reader, dry powder samples (AID 743021); assay type: functional, cell-based
Genome polyprotein = Genome polyprotein (Hepatitis C virus, UniProt Q2Q167); assay: HCV core protein dimerization inhibitors, dose response, biochemical, TR-FRET (AID 2159); design: species or system Hepacivirus hominis;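 note: blocks dimerization of HCV core protein measured by TR-FRET between tagged core106 pairs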
[14] = biological target: Ubiquitin carboxyl-terminal hydrolase BAP1 (Homo sapiens, UniProt Q92560); assay: BAP1 deubiquitinase inhibitors, dose response, biochemical (AID 714); assay type: functional
[15] = biological target: NAD-dependent protein deacylase sirtuin-5, mitochondrial (Homo sapiens, UniProt Q9NXA8); assay: SIRT5 desuccinylase inhibitors, dose response, biochemical, fluorescence imaging, cherry-pick, set 5 (AID 720591);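 note: desuccinylation of succinyl peptide AMC substrate read as fluorescence after trypsin release; potency of inhibitors that lower fluorescence and may act on trypsin instead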
[16] = biological target: Muscarinic acetylcholine receptor M5 (Homo sapiens, UniProt P08912); assay: M5 receptor positive allosteric modulators, dose response, cell-based, concentration-response curve (AID 651878); assay type: functional
Sequence of Muscarinic acetylcholine receptor M5 (P08912 whole entry): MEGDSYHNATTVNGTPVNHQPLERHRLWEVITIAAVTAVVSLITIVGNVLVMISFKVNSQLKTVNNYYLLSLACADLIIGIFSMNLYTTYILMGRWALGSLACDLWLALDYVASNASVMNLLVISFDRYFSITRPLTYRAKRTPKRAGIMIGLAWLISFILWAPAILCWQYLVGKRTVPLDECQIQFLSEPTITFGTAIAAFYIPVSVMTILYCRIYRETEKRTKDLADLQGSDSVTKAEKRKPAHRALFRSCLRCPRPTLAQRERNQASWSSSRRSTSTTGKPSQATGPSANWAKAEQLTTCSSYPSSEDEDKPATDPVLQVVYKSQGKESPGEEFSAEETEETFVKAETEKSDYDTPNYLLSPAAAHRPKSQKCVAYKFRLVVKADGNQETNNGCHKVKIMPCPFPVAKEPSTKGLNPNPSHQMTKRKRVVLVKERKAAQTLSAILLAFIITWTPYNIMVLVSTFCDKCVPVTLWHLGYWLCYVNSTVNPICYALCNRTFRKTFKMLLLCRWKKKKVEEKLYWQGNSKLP

Sequence of Ubiquitin carboxyl-terminal hydrolase BAP1 (Q92560 whole entry): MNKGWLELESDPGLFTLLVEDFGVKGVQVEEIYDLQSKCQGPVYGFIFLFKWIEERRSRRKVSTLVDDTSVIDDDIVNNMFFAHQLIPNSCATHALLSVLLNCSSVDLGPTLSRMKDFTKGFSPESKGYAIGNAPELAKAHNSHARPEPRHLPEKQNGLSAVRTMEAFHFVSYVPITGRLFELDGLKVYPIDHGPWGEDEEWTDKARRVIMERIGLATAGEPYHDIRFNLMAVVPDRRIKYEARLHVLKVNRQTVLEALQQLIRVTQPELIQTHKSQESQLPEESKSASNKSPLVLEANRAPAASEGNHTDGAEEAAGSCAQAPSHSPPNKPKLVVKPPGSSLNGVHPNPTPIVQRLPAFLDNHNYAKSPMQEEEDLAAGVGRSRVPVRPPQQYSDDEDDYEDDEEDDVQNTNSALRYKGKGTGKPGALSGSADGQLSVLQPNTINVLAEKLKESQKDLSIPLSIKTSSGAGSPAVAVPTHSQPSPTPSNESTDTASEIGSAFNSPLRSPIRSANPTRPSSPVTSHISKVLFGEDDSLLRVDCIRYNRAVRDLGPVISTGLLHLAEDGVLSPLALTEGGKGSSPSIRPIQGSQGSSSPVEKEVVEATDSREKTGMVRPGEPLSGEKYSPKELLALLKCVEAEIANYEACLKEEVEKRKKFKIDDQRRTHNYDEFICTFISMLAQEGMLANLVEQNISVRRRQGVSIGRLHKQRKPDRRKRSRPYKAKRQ
Sequence of Genome polyprotein (Q2Q167 whole entry): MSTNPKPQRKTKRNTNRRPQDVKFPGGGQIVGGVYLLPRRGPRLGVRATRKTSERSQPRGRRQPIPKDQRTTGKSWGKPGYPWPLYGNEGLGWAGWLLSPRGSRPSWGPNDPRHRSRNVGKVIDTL
Sequence of Paired box protein Pax-8 (Q06710 whole entry): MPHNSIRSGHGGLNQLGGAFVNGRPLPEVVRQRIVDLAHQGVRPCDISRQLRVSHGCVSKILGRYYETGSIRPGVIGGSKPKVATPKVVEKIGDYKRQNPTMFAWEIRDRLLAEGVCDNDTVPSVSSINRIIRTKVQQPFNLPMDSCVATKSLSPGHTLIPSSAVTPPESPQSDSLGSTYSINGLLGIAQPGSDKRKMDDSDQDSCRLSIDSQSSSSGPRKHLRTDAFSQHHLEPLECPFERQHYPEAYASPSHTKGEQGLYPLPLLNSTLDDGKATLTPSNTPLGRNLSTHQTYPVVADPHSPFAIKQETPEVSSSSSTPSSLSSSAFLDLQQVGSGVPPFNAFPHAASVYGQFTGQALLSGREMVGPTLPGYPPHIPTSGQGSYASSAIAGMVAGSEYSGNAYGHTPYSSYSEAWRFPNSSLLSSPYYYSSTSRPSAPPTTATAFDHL
Sequence of NAD-dependent protein deacylase sirtuin-5, mitochondrial (Q9NXA8 whole entry): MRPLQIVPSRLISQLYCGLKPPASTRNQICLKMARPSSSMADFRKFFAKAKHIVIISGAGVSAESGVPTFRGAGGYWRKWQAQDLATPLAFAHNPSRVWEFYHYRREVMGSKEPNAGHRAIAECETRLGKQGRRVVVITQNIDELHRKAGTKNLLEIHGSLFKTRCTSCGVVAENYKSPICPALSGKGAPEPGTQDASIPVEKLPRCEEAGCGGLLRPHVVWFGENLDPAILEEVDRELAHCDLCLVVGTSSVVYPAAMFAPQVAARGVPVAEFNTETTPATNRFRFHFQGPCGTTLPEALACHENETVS

Which IC50 [1] does the source give for `O=C(c1cc(O)c(O)c(O)c1)c1ccc(O)c(O)c1O` [EXIFONE] here?
The IC50 was > 10 µM (inactive).

And the IC50 [2]?
The IC50 was 9.95 µM (inactive).

And the IC50 [3]?
Its IC50 is 0.192 µM (active).

And the IC50 [4]?
Its IC50 is 16.3 µM (inactive).

What about the IC50 [5] of the same molecule?
Its IC50 is 12.8 µM (inactive).

What about the IC50 [6] of the same molecule?
The IC50 was 9.38 µM (inactive).

And the IC50 [7]?
Its IC50 is > 10 µM (inactive).

And the IC50 [8]?
Its IC50 is 9.45 µM (inactive).

What about the IC50 [9] of the same molecule?
Its IC50 is 11.9 µM (inactive).

What about the IC50 [10] of the same molecule?
The IC50 was 0.0691 µM (active).

Which AC50 (Paired box protein Pax-8) does the source give for `C[C@@H]1CN([C@@H](C)CO)C(=O)Cc2cc(NS(=O)(=O)c3ccc(Cl)cc3)ccc2O[C@@H]1CN(C)CC1CCCCC1` here?
Its AC50 is 11.7 µM (active).

What about the AC50 [11] of the same molecule?
Its AC50 is 21.2 µM (active).

And the AC50 [12]?
Its AC50 is 46.2 µM (active).

What about the AC50 [13] of the same molecule?
The AC50 was 41.9 µM (active).

With `Cc1sccc1C1C(C#N)=C(N)SC(N)=C1C#N` as the molecule, how does the IC50 (Genome polyprotein) read?
Its IC50 is > 49.8 µM (not active).

With `Cc1sc(NC(=O)CSc2nnc(-c3ccccc3)o2)c(C#N)c1C` as the molecule, how does the IC50 [14] read?
Its IC50 is 44.8 µM (not active).

For `C/C=C1\NC(=O)[C@H](C)NC(=O)[C@@H](NC(=O)[C@H](Cc2ccc(O)cc2)NC(=O)[C@@H](NC(=O)/C(C)=C/C)C(C)C)[C@@H](C)OC(=O)[C@H](CCCc2ccc(O)cc2)NC(=O)[C@@H](CCC(=O)O)NC1=O` (Tigloyl-VYTA[Dhb][dE][bishTyr]; ester 3-C), which AC50 [15] is on record?
Its AC50 is 12.6 µM (active).

With `O=C1C(=O)N(CCCOc2ccccc2)c2ccc(OC(F)(F)F)cc21` as the molecule, how does the EC50 [16] read?
The EC50 was 1.97 µM (active).

From ChEMBL document CHEMBL1201862, “PubChem BioAssay data set” (2004)
